# Laboratory results taken from article PMC9321231.
# Read-outs that look alike come from different tables or passages of the source.
# What was measured:
# [1] = test system: lung carcinoma (A549) cells; assay: Antiproliferative assay (MTT or SRB), A549; type: cell-based, human; settings: for IC50: A-549, read-out: IC50 ± SD, antiproliferative activity; for Calculated Selectivity Index SI: IC50 Balb/3T3 / IC50 A-549
# Procedure: (§1) Cell preparation, an in vitro antiproliferative assay, and MTT and SRB cytotoxic tests were performed according to the literature.
# [2] = test system: normal mouse fibroblast (BALB/3T3) cells; assay: Antiproliferative assay (MTT or SRB), normal fibroblasts BALB/3T3; type: cell-based; settings: Balb/3T3 normal mouse fibroblasts; read-out: IC50 ± SD, antiproliferative activity
# Procedure: Anticancer drugs are toxic to cancer cells, but also show some toxicity to healthy cells. […] The selectivity indexes for thiazoles 3a–3j against MV4-11 and A-549 cells were in general much higher than for MDA-MB-231 and UMUC-3 cells.
# as §1
# [3] = target: T1, human neutrophil elastase (HNE) (Homo sapiens, UniProt P08246); assay: Kinetic analysis of the inhibition of human neutrophil elastase (Lineweaver-Burk, Dixon, secondary plots); type: biochemical; settings: for Inhibition Type: Lineweaver-Burk and Dixon analysis; for Kis (enzyme-substrate-inhibitor dissociation constant): secondary plot of intercept versus inhibitor concentration; for Ki: secondary plot of slope versus inhibitor concentration, read-out: Ki (enzyme-inhibitor dissociation constant)
# T1 sequence (P08246 30-267): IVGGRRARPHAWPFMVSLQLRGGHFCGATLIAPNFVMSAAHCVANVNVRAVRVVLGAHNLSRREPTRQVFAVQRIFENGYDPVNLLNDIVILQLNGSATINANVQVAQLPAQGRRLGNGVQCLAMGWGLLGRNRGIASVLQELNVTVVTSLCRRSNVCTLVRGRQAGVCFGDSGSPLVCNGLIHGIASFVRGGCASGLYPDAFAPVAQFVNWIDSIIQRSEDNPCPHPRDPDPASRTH
# Procedure: Next, kinetic analysis of the mechanism of inhibition of human neutrophil elastase by thiazoles 3a–3j was determined using double-reciprocal plots of Lineweaver-Burk plots and Dixon analysis.
# The first model is one in which the inhibitor binds better to the free enzyme (competitive mechanism), while the second model is one in which the inhibitor binds better to the enzyme-substrate complex (non-competitive mechanism). Next the secondary plots of slope versus concentration of test compounds were plotted to determine the enzyme-inhibitor dissociation constants Ki, and similarly as was used to determine enzyme-substrate-inhibitor dissociation constants Kis, the secondary plots of intercept versus concentration of tested compounds were plotted.
# Kinetic studies were conducted in the presence of different concentrations of substrate (5, 25, 50 and 100 µM) and test compounds (in the range of 0–500 nM). The reaction conditions were the same as in the HNE inhibition assay and the reaction was monitored for 10 min at 25 °C with the same Ex an Em wavelengths. By Lineweaver–Burk plots, kinetic values such as the Michaelis–Menten constants and maximum velocity were determined. Next, two inhibition constants for inhibitor binding with free enzyme or enzyme–substrate complex (Ki and Kis) were obtained by plotting the secondary plot of the slopes of the determined straight lines or vertical intercept (1/Vmax) versus inhibitor concentration.
# [4] = test system: urinary bladder carcinoma (UMUC-3) cells; assay: Antiproliferative assay (MTT or SRB), UMUC-3; type: cell-based, human; settings: for IC50: UMUC-3, read-out: IC50 ± SD, antiproliferative activity; for Calculated Selectivity Index SI: IC50 Balb/3T3 / IC50 UMUC-3
# Procedure: as §1
# [5] = target: T1, human neutrophil elastase (HNE); assay: Human neutrophil elastase inhibition assay (spectrofluorimetric, MeOSuc-AAPV-AMC substrate)
# Procedure: The inhibition of human neutrophil elastase was carried out by the spectrofluorimetric method using N-methoxysuccinyl-Ala-Ala-Pro-Val-7-amido-4-methylcoumarin (MeOSuc-AAPV-AMC) as substrate.
# [6] = test system: human biphenotypic B myelomonocytic leukemia (MV4-11) cells; assay: Antiproliferative assay (MTT or SRB), MV4-11; type: cell-based; settings: for IC50: MV-4-11, read-out: IC50 ± SD, antiproliferative activity; for Calculated Selectivity Index SI: IC50 Balb/3T3 / IC50 MV-4-11
# Procedure: as §1
# [7] = test system: human breast adenocarcinoma (MDA-MB-231) cells; assay: Antiproliferative assay (MTT or SRB), MDA-MB-231; type: cell-based; settings: for IC50: MDA-MB-231, read-out: IC50 ± SD, antiproliferative activity; for Calculated Selectivity Index SI: IC50 Balb/3T3 / IC50 MDA-MB-231
# Procedure: as §1
Compound,"IC50 ([1]; Homo sapiens, A549)",Calculated Selectivity Index SI [1],IC50 [2],Inhibition Type [3],Kis (enzyme-substrate-inhibitor dissociation constant) [3],Ki [3],"IC50 ([4]; Homo sapiens, UMUC3)",Calculated Selectivity Index SI [4],IC50 [5],"IC50 ([6]; Homo sapiens, MV4-11)",Calculated Selectivity Index SI [6],melting point,IC50 ([7]; Homo sapiens),Calculated Selectivity Index SI [7],IC50 [1],IC50 [4],IC50 [6],IC50 [7]
"CCC1(CC)C(=O)N(c2ccc(-c3csc(Nc4ccc(Cl)cc4)n3)cc2)C1=O [3a, 1-(4-(2-(4-Chlorophenylamino)thiazol-4-yl)phenyl)-3,3-diethylazetidine-2,4-dione]",7.01 ± 0.47 µM,1.55,10.9 ± 1.18 µM,mixed,426.00 nM,0.59 µM,10.7 ± 1.41 µM,1.02,0.227 ± 0.0351 µM,7.15 ± 0.94 µM,1.52,164 to 166 °C,9.86 ± 0.94 µM,1.10,–,–,–,–
"CCC1(CC)C(=O)N(c2ccc(-c3csc(Nc4ccc(F)cc4)n3)cc2)C1=O [3b, 3,3-Diethyl-1-(4-(2-(4-fluorophenylamino)thiazol-4-yl)phenyl)azetidine-2,4-dione]",7.31 ± 0.46 µM,1.57,11.5 ± 1.47 µM,mixed,65.50 nM,0.0722 µM,9.07 ± 0.49 µM,1.27,0.176 ± 0.0135 µM,5.92 ± 1.71 µM,1.94,155 to 157 °C,9.34 ± 1.12 µM,1.23,–,–,–,–
"CCC1(CC)C(=O)N(c2ccc(-c3csc(Nc4c(F)c(F)c(F)c(F)c4F)n3)cc2)C1=O [3d, 3,3-Diethyl-1-(4-(2-(perfluorophenylamino)thiazol-4-yl)phenyl)azetidine-2,4-dione]",15.3 ± 4.98 µM,3.04,46.5 ± 4.99 µM,mixed,49.33 nM,0.138 µM,62.7 ± 9.98 µM,0.74,0.11 ± 0.00441 µM,5.4 ± 2.06 µM,8.61,162 to 164 °C,72.1 ± 26 µM,0.64,–,–,–,–
"CCC1(CC)C(=O)N(c2ccc(-c3csc(Nc4cc(C)cc(C)c4)n3)cc2)C1=O [3f, 1-(4-(2-(3,5-Dimethylphenylamino)thiazol-4-yl)phenyl)-3,3-diethylazetidine-2,4-dione]",7.28 ± 1.07 µM,3.27,23.8 ± 4.53 µM,mixed type I inhibition,426.00 nM,0.144 µM,19.7 ± 5.49 µM,1.21,0.244 ± 0.0194 µM,5.89 ± 1.67 µM,4.04,140 to 143 °C,12.5 ± 1.79 µM,1.90,–,–,–,–
"CCC1(CC)C(=O)N(c2ccc(-c3csc(Nc4ccc5[nH]ncc5c4)n3)cc2)C1=O [3g, 1-(4-(2-(1H-Indazol-5-ylamino)thiazol-4-yl)phenyl)-3,3-diethylazetidine-2,4-dione]",5.59 ± 0.16 µM,1.08,6.03 ± 0.46 µM,mixed type I inhibition,171.25 nM,0.137 µM,7.89 ± 0.23 µM,0.76,0.312 ± 0.00576 µM,5.38 ± 0.46 µM,1.12,186 to 188 °C,6.19 ± 0.42 µM,0.97,–,–,–,–
"CCC1(CC)C(=O)N(c2ccc(-c3csc(Nc4cccc5ccccc45)n3)cc2)C1=O [3h, 3,3-Diethyl-1-(4-(2-(naphthalen-1-ylamino)thiazol-4-yl)phenyl)azetidine-2,4-dione]",9.2 ± 1.36 µM,2.44,22.4 ± 8.62 µM,mixed type I inhibition,46.50 nM,0.0339 µM,13.3 ± 1.81 µM,1.69,0.0446 ± 0.00604 µM,6.64 ± 1.59 µM,3.38,69 to 71 °C,14.6 ± 3.17 µM,1.53,–,–,–,–
"CCC1(CC)C(=O)N(c2ccc(-c3csc(Nc4ccc(C(F)(F)F)cc4)n3)cc2)C1=O [3i, 3,3-Diethyl-1-(4-(2-(4-(trifluoromethyl)phenylamino)thiazol-4-yl)phenyl)-azetidine-2,4-dione]",6.42 ± 0.72 µM,1.58,10.1 ± 0.87 µM,mixed,425.00 nM,0.597 µM,10.7 ± 3.05 µM,0.95,0.168 ± 0.0181 µM,5.47 ± 1.52 µM,1.85,170 to 172 °C,11.7 ± 3.7 µM,0.87,–,–,–,–
"CCC1(CC)C(=O)N(c2ccc(-c3csc(Nc4c(Cl)cc(Cl)cc4Cl)n3)cc2)C1=O [3j, 3,3-Diethyl-1-(4-(2-(2,4,6-trichlorophenylamino)thiazol-4-yl)phenyl)azetidine-2,4-dione]",6.21 ± 0.73 µM,5.55,34.5 ± 22.7 µM,mixed,38.00 nM,0.209 µM,25.3 ± 9.94 µM,1.36,0.249 ± 0.0328 µM,5.11 ± 1.42 µM,6.75,78 to 80 °C,14.3 ± 3.45 µM,2.41,–,–,–,–
"N.N.[Cl][Pt][Cl] [cisplatin, reference compound]",–,–,8.04 ± 3.16 µM,–,–,–,–,–,–,–,–,–,–,–,4.09 ± 1 µM,1.73 ± 0.17 µM,1.33 ± 0.17 µM,19.4 ± 6.8 µM
